Key:
Format in all cases: in vivo
Soja [1] = experiment: Pre-emergent herbicidal action (B.2), crop tolerance; settings: 500 bis 2000 [g/ha], evaluated after 3 weeks
Method: (§1) Im Gewächshaus wird unmittelbar nach der Einsaat der Versuchspflanzen in Saatschalen die Erdoberfläche mit einer wässrigen Dispersion der Wirkstoffe, erhalten aus einem 25 %igen Emulsionskonzentrat behandelt. Es werden Konzentrationen von 2000-500 g Wirksubstanz/Hektar angewendet. Die Saatschalen werden im Gewächshaus bei 22-25° C und 50-70 % relativer Luftfeuchtigkeit gehalten und der Versuch nach 3 Wochen ausgewertet und die Resultate nach folgender Notenskala ausgewertet. • 1 Pflanze hat nicht gekeimt oder ist eingegangen • 2-3 sehr starke Schäden • 4 starke Schäden • 5 mittlere Schäden, die Pflanzen sind verkümmert • 6 Schäden, die Pflanze kann regenerieren • 7-8 leichte Schäden • 9 normales Wachstum, wie das unbehandelter Pflanzen
(§2) Boniturnoten von 1 bis 4 (insbesondere von 1 bis 3) weisen auf eine gute bis sehr gute Herbizidwirkung hin. Boniturnoten von 6 bis 9 (insbesondere 7 bis 9) weisen auf eine gute Toleranz (insbesondere bei Kulturpflanzen) hin.

Sorghum halep. [2] = experiment: Post-emergent herbicidal action, contact herbicide (B.3); settings: 500 bis 2000 [g/ha], 15 days after treatment
Outline: (§3)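 Monocot and dicot weeds are grown to the 4- to 6-leaf stage and then sprayed with the compound as an aqueous dispersion at 2000-500 g/ha. They are kept at 24-26 °C and 45-60% RH for 15 days. Injury is then rated from 1 (plant dead) to 9 (like untreated controls).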

Lolium perenne [3] = experiment: as above; settings: 500 bis 2000 [g/ha], 15 days after treatment
Outline: as §3

Sinapis [4] = experiment: as above; settings: 500 bis 2000 [g/ha], 15 days after treatment
Outline: as §3

Digitaria sang. [5] = experiment: as above; settings: 500 bis 2000 [g/ha], 15 days after treatment
Outline: as §3

Avena fatua [6] = experiment: as above; settings: 500 bis 2000 [g/ha], 15 days after treatment
Outline: as §3

Xanthium Sp. = experiment: as above; settings: 500 bis 2000 [g/ha], 15 days after treatment
Outline: as §3

Bromus tectorum [7] = experiment: as above; settings: 500 bis 2000 [g/ha], 15 days after treatment
Outline: as §3

Echinochloa crus galli [8] = experiment: as above; settings: 500 bis 2000 [g/ha], 15 days after treatment
Outline: as §3

Solanum nigrum [9] = experiment: as above; settings: 500 bis 2000 [g/ha], 15 days after treatment
Outline: as §3

Stellaria [10] = experiment: as above; settings: 500 bis 2000 [g/ha], 15 days after treatment
Outline: as §3

Chrysanthe. leuc. [11] = experiment: as above; settings: 500 bis 2000 [g/ha], 15 days after treatment
Outline: as §3

Galium aparine [12] = experiment: as above; settings: 500 bis 2000 [g/ha], 15 days after treatment
Outline: as §3

Amaranthus ret. [13] = experiment: as above; settings: 500 bis 2000 [g/ha], 15 days after treatment
Outline: as §3

Chenopodium Sp. [14] = experiment: as above; settings: 500 bis 2000 [g/ha], 15 days after treatment
Outline: as §3

Alopecurus myos. [15] = experiment: as above; settings: 500 bis 2000 [g/ha], 15 days after treatment
Outline: as §3

Veronica Sp. [16] = experiment: as above; settings: 500 bis 2000 [g/ha], 15 days after treatment
Outline: as §3

Abutilon [17] = experiment: as above; settings: 500 bis 2000 [g/ha], 15 days after treatment
Outline: as §3

Baumwolle = experiment: Post-emergent herbicidal action (B.3), crop tolerance; settings: 500 bis 2000 [g/ha], 15 days after treatment
Method: as §1, §2
(§4) Eine Anzahl Unkräuter, sowohl monokotyle wie dikotyle, werden nach dem Auflaufen (im 4- bis 6-Blattstadium) mit einer wässrigen Wirkstoffdispersion in einer Dosierung von 2000-500 g Wirksubstanz pro Hektar auf die Pflanzen gespritzt und diese bei 24°-26°C und 45-60 % relativer Luftfeuchtigkeit gehalten. 15 Tage nach der Behandlung wird der Versuch nach dem in Beispiel B.2. gegebenen Massstab bewertet.

Soja [18] = experiment: as above; settings: 500 bis 2000 [g/ha], 15 days after treatment
Method: as §1, §2, §4

Sorghum halep. [19] = experiment: Pre-emergent herbicidal action (B.2); settings: 500 bis 2000 [g/ha], evaluated after 3 weeks
Outline: (§5)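 Immediately after sowing in greenhouse, soil surface sprayed with aqueous dispersion of an emulsion concentrate at 2000-500 g active ingredient/ha. Plants kept at 22-25 °C, 50-70% relative humidity; damage rated after 3 weeks on a 1 (dead/not germinated) to 9 (normal growth) scale.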

Lolium perenne [20] = experiment: Pre-emergent herbicidal action (B.2); settings: 500 bis 2000 [g/ha], evaluated after 3 weeks
Outline: as §5

Ipomoea = experiment: Pre-emergent herbicidal action (B.2); settings: 500 bis 2000 [g/ha], evaluated after 3 weeks
Outline: as §5

Sinapis [21] = experiment: Pre-emergent herbicidal action (B.2); settings: 500 bis 2000 [g/ha], evaluated after 3 weeks
Outline: as §5

Digitaria sang. [22] = experiment: Pre-emergent herbicidal action (B.2); settings: 500 bis 2000 [g/ha], evaluated after 3 weeks
Outline: as §5

Avena fatua [23] = experiment: Pre-emergent herbicidal action (B.2); settings: 500 bis 2000 [g/ha], evaluated after 3 weeks
Outline: as §5

Bromus tectorum [24] = experiment: Pre-emergent herbicidal action (B.2); settings: 500 bis 2000 [g/ha], evaluated after 3 weeks
Outline: as §5

Echinochloa crus galli [25] = experiment: Pre-emergent herbicidal action (B.2); settings: 500 bis 2000 [g/ha], evaluated after 3 weeks
Outline: as §5

Solanum nigrum [26] = experiment: Pre-emergent herbicidal action (B.2); settings: 500 bis 2000 [g/ha], evaluated after 3 weeks
Outline: as §5

Stellaria [27] = experiment: Pre-emergent herbicidal action (B.2); settings: 500 bis 2000 [g/ha], evaluated after 3 weeks
Outline: as §5

Chrysanthe. leuc. [28] = experiment: Pre-emergent herbicidal action (B.2); settings: 500 bis 2000 [g/ha], evaluated after 3 weeks
Outline: as §5

Galium aparine [29] = experiment: Pre-emergent herbicidal action (B.2); settings: 500 bis 2000 [g/ha], evaluated after 3 weeks
Outline: as §5

Amaranthus ret. [30] = experiment: Pre-emergent herbicidal action (B.2); settings: 500 bis 2000 [g/ha], evaluated after 3 weeks
Outline: as §5

Chenopodium Sp. [31] = experiment: Pre-emergent herbicidal action (B.2); settings: 500 bis 2000 [g/ha], evaluated after 3 weeks
Outline: as §5

Alopecurus myos. [32] = experiment: Pre-emergent herbicidal action (B.2); settings: 500 bis 2000 [g/ha], evaluated after 3 weeks
Outline: as §5

Veronica Sp. [33] = experiment: Pre-emergent herbicidal action (B.2); settings: 500 bis 2000 [g/ha], evaluated after 3 weeks
Outline: as §5

Abutilon [34] = experiment: Pre-emergent herbicidal action (B.2); settings: 500 bis 2000 [g/ha], evaluated after 3 weeks
Outline: as §5

Question: For `CC1CCCc2nc(C3=NC(=O)C(C)(C(C)C)N3)c(C(=O)O)cc21` (stereo not shown) [Verbindung 2.02, 2-(5-Isopropyl-5-methyl-1 H-imidazol-4-on-2-yl)-5-methyl-5,6,7,8-tetrahydrochinolin-3-carbonsäure], which “Toleranz (im Wachstum beeinflusst)” value (Soja [1]) is on record?
Answer: The value was “gute Toleranz (Boniturnoten von 6 bis 9 (insbesondere 7 bis 9) weisen auf eine gute Toleranz (insbesondere bei Kulturpflanzen) hin)”.

Question: What about the Herbizidwirkung (Sorghum halep. [2]) of the same compound?
Answer: Its Herbizidwirkung is “gute bis sehr gute Herbizidwirkung (Boniturnoten von 1 bis 4 (insbesondere von 1 bis 3) weisen auf eine gute bis sehr gute Herbizidwirkung hin)”.

Question: And the Herbizidwirkung (Lolium perenne [3])?
Answer: The Herbizidwirkung was “gute bis sehr gute Herbizidwirkung (Boniturnoten von 1 bis 4 (insbesondere von 1 bis 3) weisen auf eine gute bis sehr gute Herbizidwirkung hin)”.

Question: And the Herbizidwirkung (Sinapis [4])?
Answer: The Herbizidwirkung was “gute bis sehr gute Herbizidwirkung (Boniturnoten von 1 bis 4 (insbesondere von 1 bis 3) weisen auf eine gute bis sehr gute Herbizidwirkung hin)”.

Question: And the Herbizidwirkung (Digitaria sang. [5])?
Answer: Its Herbizidwirkung is “gute bis sehr gute Herbizidwirkung (Boniturnoten von 1 bis 4 (insbesondere von 1 bis 3) weisen auf eine gute bis sehr gute Herbizidwirkung hin)”.

Question: What about the Herbizidwirkung (Avena fatua [6]) of the same compound?
Answer: Its Herbizidwirkung is “gute bis sehr gute Herbizidwirkung (Boniturnoten von 1 bis 4 (insbesondere von 1 bis 3) weisen auf eine gute bis sehr gute Herbizidwirkung hin)”.

Question: And the Herbizidwirkung (Xanthium Sp.)?
Answer: The Herbizidwirkung was “gute bis sehr gute Herbizidwirkung (Boniturnoten von 1 bis 4 (insbesondere von 1 bis 3) weisen auf eine gute bis sehr gute Herbizidwirkung hin)”.

Question: And the Herbizidwirkung (Bromus tectorum [7])?
Answer: The Herbizidwirkung was “gute bis sehr gute Herbizidwirkung (Boniturnoten von 1 bis 4 (insbesondere von 1 bis 3) weisen auf eine gute bis sehr gute Herbizidwirkung hin)”.

Question: And the Herbizidwirkung (Echinochloa crus galli [8])?
Answer: The Herbizidwirkung was “gute bis sehr gute Herbizidwirkung (Boniturnoten von 1 bis 4 (insbesondere von 1 bis 3) weisen auf eine gute bis sehr gute Herbizidwirkung hin)”.

Question: What about the Herbizidwirkung (Solanum nigrum [9]) of the same compound?
Answer: The Herbizidwirkung was “gute bis sehr gute Herbizidwirkung (Boniturnoten von 1 bis 4 (insbesondere von 1 bis 3) weisen auf eine gute bis sehr gute Herbizidwirkung hin)”.

Question: What about the Herbizidwirkung (Stellaria [10]) of the same compound?
Answer: Its Herbizidwirkung is “gute bis sehr gute Herbizidwirkung (Boniturnoten von 1 bis 4 (insbesondere von 1 bis 3) weisen auf eine gute bis sehr gute Herbizidwirkung hin)”.

Question: And the Herbizidwirkung (Chrysanthe. leuc. [11])?
Answer: Its Herbizidwirkung is “gute bis sehr gute Herbizidwirkung (Boniturnoten von 1 bis 4 (insbesondere von 1 bis 3) weisen auf eine gute bis sehr gute Herbizidwirkung hin)”.

Question: What about the Herbizidwirkung (Galium aparine [12]) of the same compound?
Answer: Its Herbizidwirkung is “gute bis sehr gute Herbizidwirkung (Boniturnoten von 1 bis 4 (insbesondere von 1 bis 3) weisen auf eine gute bis sehr gute Herbizidwirkung hin)”.

Question: And the Herbizidwirkung (Amaranthus ret. [13])?
Answer: Its Herbizidwirkung is “gute bis sehr gute Herbizidwirkung (Boniturnoten von 1 bis 4 (insbesondere von 1 bis 3) weisen auf eine gute bis sehr gute Herbizidwirkung hin)”.

Question: And the Herbizidwirkung (Chenopodium Sp. [14])?
Answer: The Herbizidwirkung was “gute bis sehr gute Herbizidwirkung (Boniturnoten von 1 bis 4 (insbesondere von 1 bis 3) weisen auf eine gute bis sehr gute Herbizidwirkung hin)”.

Question: And the Herbizidwirkung (Alopecurus myos. [15])?
Answer: The Herbizidwirkung was “gute bis sehr gute Herbizidwirkung (Boniturnoten von 1 bis 4 (insbesondere von 1 bis 3) weisen auf eine gute bis sehr gute Herbizidwirkung hin)”.

Question: What about the Herbizidwirkung (Veronica Sp. [16]) of the same compound?
Answer: The Herbizidwirkung was “gute bis sehr gute Herbizidwirkung (Boniturnoten von 1 bis 4 (insbesondere von 1 bis 3) weisen auf eine gute bis sehr gute Herbizidwirkung hin)”.

Question: And the Herbizidwirkung (Abutilon [17])?
Answer: Its Herbizidwirkung is “gute bis sehr gute Herbizidwirkung (Boniturnoten von 1 bis 4 (insbesondere von 1 bis 3) weisen auf eine gute bis sehr gute Herbizidwirkung hin)”.

Question: What about the “Toleranz (im Wachstum beeinflusst)” value (Baumwolle) of the same compound?
Answer: The value was “gute Toleranz (Boniturnoten von 6 bis 9 (insbesondere 7 bis 9) weisen auf eine gute Toleranz (insbesondere bei Kulturpflanzen) hin)”.

Question: What about the “Toleranz (im Wachstum beeinflusst)” value (Soja [18]) of the same compound?
Answer: The value was “gute Toleranz (Boniturnoten von 6 bis 9 (insbesondere 7 bis 9) weisen auf eine gute Toleranz (insbesondere bei Kulturpflanzen) hin)”.

Question: And the Herbizidwirkung (Sorghum halep. [19])?
Answer: The Herbizidwirkung was “gute bis sehr gute Herbizidwirkung (Boniturnoten von 1 bis 4 (insbesondere von 1 bis 3) weisen auf eine gute bis sehr gute Herbizidwirkung hin)”.

Question: What about the Herbizidwirkung (Lolium perenne [20]) of the same compound?
Answer: The Herbizidwirkung was “gute bis sehr gute Herbizidwirkung (Boniturnoten von 1 bis 4 (insbesondere von 1 bis 3) weisen auf eine gute bis sehr gute Herbizidwirkung hin)”.

Question: And the Herbizidwirkung (Ipomoea)?
Answer: Its Herbizidwirkung is “gute bis sehr gute Herbizidwirkung (Boniturnoten von 1 bis 4 (insbesondere von 1 bis 3) weisen auf eine gute bis sehr gute Herbizidwirkung hin)”.

Question: What about the Herbizidwirkung (Sinapis [21]) of the same compound?
Answer: The Herbizidwirkung was “gute bis sehr gute Herbizidwirkung (Boniturnoten von 1 bis 4 (insbesondere von 1 bis 3) weisen auf eine gute bis sehr gute Herbizidwirkung hin)”.

Question: What about the Herbizidwirkung (Digitaria sang. [22]) of the same compound?
Answer: The Herbizidwirkung was “gute bis sehr gute Herbizidwirkung (Boniturnoten von 1 bis 4 (insbesondere von 1 bis 3) weisen auf eine gute bis sehr gute Herbizidwirkung hin)”.

Question: And the Herbizidwirkung (Avena fatua [23])?
Answer: The Herbizidwirkung was “gute bis sehr gute Herbizidwirkung (Boniturnoten von 1 bis 4 (insbesondere von 1 bis 3) weisen auf eine gute bis sehr gute Herbizidwirkung hin)”.

Question: And the Herbizidwirkung (Bromus tectorum [24])?
Answer: Its Herbizidwirkung is “gute bis sehr gute Herbizidwirkung (Boniturnoten von 1 bis 4 (insbesondere von 1 bis 3) weisen auf eine gute bis sehr gute Herbizidwirkung hin)”.

Question: And the Herbizidwirkung (Echinochloa crus galli [25])?
Answer: The Herbizidwirkung was “gute bis sehr gute Herbizidwirkung (Boniturnoten von 1 bis 4 (insbesondere von 1 bis 3) weisen auf eine gute bis sehr gute Herbizidwirkung hin)”.

Question: What about the Herbizidwirkung (Solanum nigrum [26]) of the same compound?
Answer: The Herbizidwirkung was “gute bis sehr gute Herbizidwirkung (Boniturnoten von 1 bis 4 (insbesondere von 1 bis 3) weisen auf eine gute bis sehr gute Herbizidwirkung hin)”.

Question: What about the Herbizidwirkung (Stellaria [27]) of the same compound?
Answer: The Herbizidwirkung was “gute bis sehr gute Herbizidwirkung (Boniturnoten von 1 bis 4 (insbesondere von 1 bis 3) weisen auf eine gute bis sehr gute Herbizidwirkung hin)”.

Question: What about the Herbizidwirkung (Chrysanthe. leuc. [28]) of the same compound?
Answer: The Herbizidwirkung was “gute bis sehr gute Herbizidwirkung (Boniturnoten von 1 bis 4 (insbesondere von 1 bis 3) weisen auf eine gute bis sehr gute Herbizidwirkung hin)”.

Question: What about the Herbizidwirkung (Galium aparine [29]) of the same compound?
Answer: The Herbizidwirkung was “gute bis sehr gute Herbizidwirkung (Boniturnoten von 1 bis 4 (insbesondere von 1 bis 3) weisen auf eine gute bis sehr gute Herbizidwirkung hin)”.

Question: What about the Herbizidwirkung (Amaranthus ret. [30]) of the same compound?
Answer: The Herbizidwirkung was “gute bis sehr gute Herbizidwirkung (Boniturnoten von 1 bis 4 (insbesondere von 1 bis 3) weisen auf eine gute bis sehr gute Herbizidwirkung hin)”.

Question: And the Herbizidwirkung (Chenopodium Sp. [31])?
Answer: Its Herbizidwirkung is “gute bis sehr gute Herbizidwirkung (Boniturnoten von 1 bis 4 (insbesondere von 1 bis 3) weisen auf eine gute bis sehr gute Herbizidwirkung hin)”.

Question: What about the Herbizidwirkung (Alopecurus myos. [32]) of the same compound?
Answer: Its Herbizidwirkung is “gute bis sehr gute Herbizidwirkung (Boniturnoten von 1 bis 4 (insbesondere von 1 bis 3) weisen auf eine gute bis sehr gute Herbizidwirkung hin)”.

Question: What about the Herbizidwirkung (Veronica Sp. [33]) of the same compound?
Answer: Its Herbizidwirkung is “gute bis sehr gute Herbizidwirkung (Boniturnoten von 1 bis 4 (insbesondere von 1 bis 3) weisen auf eine gute bis sehr gute Herbizidwirkung hin)”.

Question: And the Herbizidwirkung (Abutilon [34])?
Answer: Its Herbizidwirkung is “gute bis sehr gute Herbizidwirkung (Boniturnoten von 1 bis 4 (insbesondere von 1 bis 3) weisen auf eine gute bis sehr gute Herbizidwirkung hin)”.

— patent EP0327492A1, “Herbicidally and plantgrowth regulatory active quinoline and pyrindine compounds” (CIBA-GEIGY AG, priority 1988, dated 1989)
